Measured values taken from patent US11154529B2, “Phosphaplatin liquid formulations” (Phosplatin Therapeutics Inc., priority 2016, dated 2021).

Assays:
[1] = Decrease in potency by HPLC of aqueous 1 mg/mL (R,R)-pyrodach-2 solutions in a variety of buffers at ambient temperature; assay type: physicochemical
From the text: Chem. 47, 7942 (2008)). Thus, simple dissolution of (R,R)-pyrodach-2 affords an acidic solution. […] At higher pHs, where the acid groups of (R,R)-pyrodach-2 are ionized, the solubility of (R,R)-pyrodach-2 increases. In addition, deprotonation of the acid groups in (R,R)-pyrodach-2 dramatically reduces the rate of hydrolytic degradation. […] Thus, controlling the pH of an aqueous solution in the physiological pH range, much less the accurate and reproducible preparation of aqueous (R,R)-pyrodach-2 solutions in this pH range by pH adjustment of an aqueous solution of (R,R)-pyrodach-2 with hydroxide base, is extremely difficult. […] This presents a unique challenge as the pyrophosphate ligand in (R,R)-pyrodach-2 is kinetically labile in solution and can potentially undergo reaction with anions present in many buffers. […] [table]

[2] = Ready-to-use formulation stability at 2-8° C., 5 mg/mL (R,R)-pyrodach-2 in 10 mM Bicarbonate Buffer at pH 8.6, 10 mL vials; assay type: physicochemical
[3] = cited from earlier work

For `O=P1(O)OP(=O)(O)[O][Pt]2([NH][C@@H]3CCCC[C@H]3[NH]2)[O]1` (stereo partly drawn) [(R,R)-pyrodach-2, (R,R)-trans-1,2-cyclohexanediamine-(dihydrogenpyrophosphato)platinum(II)], the “Decrease in Potency” value ([1]; Acetate 20 mM, pH 5.32, 7 days) was 13.5%, the “Decrease in Potency” value ([1]; Citric acid 20 mM, pH 6.51, 4 days) was 1.9% and the “Decrease in Potency” value ([1]; Citric acid 20 mM, pH 6.51, 11 days) was 3.9%. For the same compound, the “Decrease in Potency” value ([1]; L-arginine 20 mM, pH 7.72, 4 days) was 4.0%, the “Decrease in Potency” value ([1]; L-arginine 20 mM, pH 7.72, 11 days) was 10% and the “Decrease in Potency” value ([1]; NH4HCO3 20 mM, pH 7.68, 14 days) was 8.0%. For the same compound, the “Decrease in Potency” value ([1]; NH4HCO3 50 mM, pH 7.83, 14 days) was 18.0%, the “Decrease in Potency” value ([1]; NH4HCO3 100 mM, pH 7.94, 14 days) was 47.1% and the “Decrease in Potency” value ([1]; Triethanolamine 20 mM, pH 7.97, 4 days) was 1.9%. The “Decrease in Potency” value ([1]; Triethanolamine 20 mM, pH 7.97, 11 days) was 5.7%, the “Potency (Assay)” value ([2]; 1 month) was 99.1% and the “Purity (% Area)” value ([2]; 1 month) was 97.85%. For the same compound, the “Unknown Impurities RRT~0.29” value ([2]; 1 month) was 0.14%, the “Unknown Impurities RRT~0.35” value ([2]; 1 month) was “ND (ND = Not Detected, or <0.05%)” and the “Unknown Impurities RRT~0.41” value ([2]; 1 month) was 0.05%. The “Unknown Impurities RRT~0.49” value ([2]; 1 month) was 0.55%, the “Unknown Impurities RRT~0.59” value ([2]; 1 month) was 0.08% and the “Unknown Impurities RRT~0.73” value ([2]; 1 month) was 1.14%. The “Unknown Impurities RRT~1.51” value ([2]; 1 month) was “ND (ND = Not Detected, or <0.05%)”, the “Unknown Impurities RRT~2.82” value ([2]; 1 month) was “ND (ND = Not Detected, or <0.05%)” and the “Unknown Impurities RRT~3.44” value ([2]; 1 month) was “ND (ND = Not Detected, or <0.05%)”. The pH ([2]; 1 month) was 8.73, the “Potency (Assay)” value ([2]; 1 week) was 101.9% and the “Purity (% Area)” value ([2]; 1 week) was 98.02%. The “Unknown Impurities RRT~0.29” value ([2]; 1 week) was 0.10%, the “Unknown Impurities RRT~0.35” value ([2]; 1 week) was “ND (ND = Not Detected, or <0.05%)” and the “Unknown Impurities RRT~0.41” value ([2]; 1 week) was “ND (ND = Not Detected, or <0.05%)”. The “Unknown Impurities RRT~0.49” value ([2]; 1 week) was 0.60%, the “Unknown Impurities RRT~0.59” value ([2]; 1 week) was “ND (ND = Not Detected, or <0.05%)” and the “Unknown Impurities RRT~0.73” value ([2]; 1 week) was 1.11%. The “Unknown Impurities RRT~1.51” value ([2]; 1 week) was “ND (ND = Not Detected, or <0.05%)”, the “Unknown Impurities RRT~2.82” value ([2]; 1 week) was “ND (ND = Not Detected, or <0.05%)” and the “Unknown Impurities RRT~3.44” value ([2]; 1 week) was “ND (ND = Not Detected, or <0.05%)”. For the same compound, the pH ([2]; 1 week) was 8.57, the “Potency (Assay)” value ([2]; 2 month) was 102.4% and the “Purity (% Area)” value ([2]; 2 month) was 97.58%. The “Unknown Impurities RRT~0.29” value ([2]; 2 month) was 0.21%, the “Unknown Impurities RRT~0.35” value ([2]; 2 month) was “ND (ND = Not Detected, or <0.05%)” and the “Unknown Impurities RRT~0.41” value ([2]; 2 month) was 0.11%. For the same compound, the “Unknown Impurities RRT~0.49” value ([2]; 2 month) was 0.62%, the “Unknown Impurities RRT~0.59” value ([2]; 2 month) was 0.15% and the “Unknown Impurities RRT~0.73” value ([2]; 2 month) was 1.03%. The “Unknown Impurities RRT~1.51” value ([2]; 2 month) was “ND (ND = Not Detected, or <0.05%)”, the “Unknown Impurities RRT~2.82” value ([2]; 2 month) was “ND (ND = Not Detected, or <0.05%)” and the “Unknown Impurities RRT~3.44” value ([2]; 2 month) was 0.06%. For the same compound, the pH ([2]; 2 month) was 8.76, the “Potency (Assay)” value ([2]; 2 week) was 100.5% and the “Purity (% Area)” value ([2]; 2 week) was 97.99%. The “Unknown Impurities RRT~0.29” value ([2]; 2 week) was 0.12%, the “Unknown Impurities RRT~0.35” value ([2]; 2 week) was “ND (ND = Not Detected, or <0.05%)” and the “Unknown Impurities RRT~0.41” value ([2]; 2 week) was “ND (ND = Not Detected, or <0.05%)”. The “Unknown Impurities RRT~0.49” value ([2]; 2 week) was 0.63%, the “Unknown Impurities RRT~0.59” value ([2]; 2 week) was 0.06% and the “Unknown Impurities RRT~0.73” value ([2]; 2 week) was 1.14%. For the same compound, the “Unknown Impurities RRT~1.51” value ([2]; 2 week) was “ND (ND = Not Detected, or <0.05%)”, the “Unknown Impurities RRT~2.82” value ([2]; 2 week) was “ND (ND = Not Detected, or <0.05%)” and the “Unknown Impurities RRT~3.44” value ([2]; 2 week) was “ND (ND = Not Detected, or <0.05%)”. For the same compound, the pH ([2]; 2 week) was 8.65, the “Potency (Assay)” value ([2]; 3 month) was 102.3% and the “Purity (% Area)” value ([2]; 3 month) was 97.76%. For the same compound, the “Unknown Impurities RRT~0.29” value ([2]; 3 month) was 0.29%, the “Unknown Impurities RRT~0.35” value ([2]; 3 month) was “ND (ND = Not Detected, or <0.05%)” and the “Unknown Impurities RRT~0.41” value ([2]; 3 month) was 0.13%. For the same compound, the “Unknown Impurities RRT~0.49” value ([2]; 3 month) was 0.53%, the “Unknown Impurities RRT~0.59” value ([2]; 3 month) was 0.15% and the “Unknown Impurities RRT~0.73” value ([2]; 3 month) was 0.89%. The “Unknown Impurities RRT~1.51” value ([2]; 3 month) was 0.06%, the “Unknown Impurities RRT~2.82” value ([2]; 3 month) was 0.05% and the “Unknown Impurities RRT~3.44” value ([2]; 3 month) was “ND (ND = Not Detected, or <0.05%)”. The pH ([2]; 3 month) was 8.95, the “Potency (Assay)” value ([2]; 3 week) was 100.0% and the “Purity (% Area)” value ([2]; 3 week) was 97.91%. For the same compound, the “Unknown Impurities RRT~0.29” value ([2]; 3 week) was 0.14%, the “Unknown Impurities RRT~0.35” value ([2]; 3 week) was “ND (ND = Not Detected, or <0.05%)” and the “Unknown Impurities RRT~0.41” value ([2]; 3 week) was “ND (ND = Not Detected, or <0.05%)”. For the same compound, the “Unknown Impurities RRT~0.49” value ([2]; 3 week) was 0.56%, the “Unknown Impurities RRT~0.59” value ([2]; 3 week) was 0.07% and the “Unknown Impurities RRT~0.73” value ([2]; 3 week) was 1.11%. For the same compound, the “Unknown Impurities RRT~1.51” value ([2]; 3 week) was “ND (ND = Not Detected, or <0.05%)”, the “Unknown Impurities RRT~2.82” value ([2]; 3 week) was “ND (ND = Not Detected, or <0.05%)” and the “Unknown Impurities RRT~3.44” value ([2]; 3 week) was “ND (ND = Not Detected, or <0.05%)”. The pH ([2]; 3 week) was 8.67, the “Potency (Assay)” value ([2]; 4 month) was 103.5% and the “Purity (% Area)” value ([2]; 4 month) was 98.07%. For the same compound, the “Unknown Impurities RRT~0.29” value ([2]; 4 month) was 0.15%, the “Unknown Impurities RRT~0.35” value ([2]; 4 month) was “ND (ND = Not Detected, or <0.05%)” and the “Unknown Impurities RRT~0.41” value ([2]; 4 month) was 0.16%. The “Unknown Impurities RRT~0.49” value ([2]; 4 month) was 0.68%, the “Unknown Impurities RRT~0.59” value ([2]; 4 month) was 0.09% and the “Unknown Impurities RRT~0.73” value ([2]; 4 month) was 0.72%. For the same compound, the “Unknown Impurities RRT~1.51” value ([2]; 4 month) was 0.05%, the “Unknown Impurities RRT~2.82” value ([2]; 4 month) was 0.05% and the “Unknown Impurities RRT~3.44” value ([2]; 4 month) was “ND (ND = Not Detected, or <0.05%)”. For the same compound, the pH ([2]; 4 month) was 8.83, the “Potency (Assay)” value ([2]; 6 month) was 100.4% and the “Purity (% Area)” value ([2]; 6 month) was 97.56%. For the same compound, the “Unknown Impurities RRT~0.29” value ([2]; 6 month) was 0.23%, the “Unknown Impurities RRT~0.35” value ([2]; 6 month) was “ND (ND = Not Detected, or <0.05%)” and the “Unknown Impurities RRT~0.41” value ([2]; 6 month) was 0.23%. For the same compound, the “Unknown Impurities RRT~0.49” value ([2]; 6 month) was 0.65%, the “Unknown Impurities RRT~0.59” value ([2]; 6 month) was 0.21% and the “Unknown Impurities RRT~0.73” value ([2]; 6 month) was 0.90%. The “Unknown Impurities RRT~1.51” value ([2]; 6 month) was “ND (ND = Not Detected, or <0.05%)”, the “Unknown Impurities RRT~2.82” value ([2]; 6 month) was “ND (ND = Not Detected, or <0.05%)” and the “Unknown Impurities RRT~3.44” value ([2]; 6 month) was 0.09%. The pH ([2]; 6 month) was 8.84, the “Potency (Assay)” value ([2]; 9 month) was 102.2% and the “Purity (% Area)” value ([2]; 9 month) was 97.73%. For the same compound, the “Unknown Impurities RRT~0.29” value ([2]; 9 month) was 0.15%, the “Unknown Impurities RRT~0.35” value ([2]; 9 month) was “ND (ND = Not Detected, or <0.05%)” and the “Unknown Impurities RRT~0.41” value ([2]; 9 month) was 0.33%. The “Unknown Impurities RRT~0.49” value ([2]; 9 month) was 0.58%, the “Unknown Impurities RRT~0.59” value ([2]; 9 month) was 0.24% and the “Unknown Impurities RRT~0.73” value ([2]; 9 month) was 0.43%. For the same compound, the “Unknown Impurities RRT~1.51” value ([2]; 9 month) was 0.05%, the “Unknown Impurities RRT~2.82” value ([2]; 9 month) was 0.13% and the “Unknown Impurities RRT~3.44” value ([2]; 9 month) was 0.16%. The pH ([2]; 9 month) was 9.07, the “Potency (Assay)” value ([2]; 12 month) was 100.3% and the “Purity (% Area)” value ([2]; 12 month) was 96.64%. For the same compound, the “Unknown Impurities RRT~0.29” value ([2]; 12 month) was 0.13%, the “Unknown Impurities RRT~0.35” value ([2]; 12 month) was 0.05% and the “Unknown Impurities RRT~0.41” value ([2]; 12 month) was 0.47%. The “Unknown Impurities RRT~0.49” value ([2]; 12 month) was 0.64%, the “Unknown Impurities RRT~0.59” value ([2]; 12 month) was 0.27% and the “Unknown Impurities RRT~0.73” value ([2]; 12 month) was 0.98%. For the same compound, the “Unknown Impurities RRT~1.51” value ([2]; 12 month) was “ND (ND = Not Detected, or <0.05%)”, the “Unknown Impurities RRT~2.82” value ([2]; 12 month) was 0.19% and the “Unknown Impurities RRT~3.44” value ([2]; 12 month) was 0.28%. For the same compound, the pH ([2]; 12 month) was 8.97, the “Potency (Assay)” value ([2]; Initial) was 100.3% and the “Purity (% Area)” value ([2]; Initial) was 98.04%. For the same compound, the “Unknown Impurities RRT~0.29” value ([2]; Initial) was 0.11%, the “Unknown Impurities RRT~0.35” value ([2]; Initial) was “ND (ND = Not Detected, or <0.05%)” and the “Unknown Impurities RRT~0.41” value ([2]; Initial) was “ND (ND = Not Detected, or <0.05%)”. The “Unknown Impurities RRT~0.49” value ([2]; Initial) was 0.62%, the “Unknown Impurities RRT~0.59” value ([2]; Initial) was “ND (ND = Not Detected, or <0.05%)” and the “Unknown Impurities RRT~0.73” value ([2]; Initial) was 1.05%. The “Unknown Impurities RRT~1.51” value ([2]; Initial) was “ND (ND = Not Detected, or <0.05%)”, the “Unknown Impurities RRT~2.82” value ([2]; Initial) was “ND (ND = Not Detected, or <0.05%)” and the “Unknown Impurities RRT~3.44” value ([2]; Initial) was “ND (ND = Not Detected, or <0.05%)”. For the same compound, the pH ([2]; Initial) was 8.60, the “pKa values of the two acid groups (first)” value [3] was “approximately 2.6” and the “pKa values of the two acid groups (second)” value [3] was ~4.4.
